{
  "source": "patent US10829528B2",
  "about": "“Therapeutic agents for neurological and psychiatric disorders” (VIB VZW, priority 2016, dated 2020)",
  "key": {"[1]": {"tested_on": "cultured hippocampal neurons", "test": "FM1-43 dye labeling of presynaptic vesicle recycling", "type": "cell-based, mouse", "settings": "1 μM sAPPα in the presence of CGP", "experimental": "We assessed the effect of sAPPα on synaptic vesicle recycling (ref6) using the activity-dependent dye FM1-43. We measured density (D) and intensity (ΔF) of FM1-43 uptake in presynaptic vesicles turned over by stimulation of 30 action potentials (APs) at a rate of 1 Hz in cultured hippocampal neurons.\nThe experiments were performed in mature (15-28 days in vitro) cultures. Hippocampal neurons were imaged using a FV1000 spectral Olympus confocal microscope using a 60×1.2 NA water immersion objective. The experiments were conducted at room temperature in extracellular Tyrode solution containing (in mM): NaCl, 145; KCl, 3; glucose, 15; HEPES, 10; MgCl2, 1.2; CaCl2), 1.2; pH adjusted to 7.4 with NaOH. For FM-based imaging and analysis, activity-dependent FM1-43 (10 μM) styryl dye was used to estimate basal synaptic vesicle recycling using previously described protocol48. Briefly, action potentials were elicited by passing 50 mA constant current for 1 ms through two platinum wires, separated by ˜7 mm and close to the surface of the coverslip. The extracellular medium contained non-selective blocker of glutamate receptors (0.5 mM kynurenic acid) to block recurrent neuronal activity. 30 stimuli at 1 Hz were applied during FM1-43 loading, while 800 stimuli at 2 Hz during unloading. The fluorescence of individual synapses was determined from the difference between images obtained after staining and after destining (ΔF). Detection of signals was done using custom-written scripts in MATLAB (Mathworks) as described before48."}, "[2]": {"tested_on": "Schaffer collateral (SC) synapses in mouse hippocampus", "test": "fEPSP field recordings at Schaffer collateral synapses in hippocampal slices", "type": "cell-based", "experimental": "We assessed the effect of sAPPα on the synaptic properties of Schaffer collateral (SC) synapses in mouse hippocampus. […] As change in probability of neurotransmitter release inversely correlates with a change in short-term facilitation, we applied a burst of 5 stimuli at 3 different frequencies (20, 50, and 100 Hz) to induce short-term facilitation at the SC. […] Preincubation with the GABABR antagonist CGP54626 (CGP, 10 μM) for 20 min before the incubation with sAPPα blocked its effects on the peak amplitude of the fESPS and the input/output slopes (FIG. 10f-g). Accordingly, CGP occluded sAPPα-induced augmentation of short-term facilitation at 20, 50, and 100 Hz burst frequencies (FIG. 10h-j).\nOn the day of recording the brain of a 2-month-old Balb/c male mouse was quickly removed and 400 μm-thick horizontal slices were prepared in an ice-cold oxygenated buffer containing (in mM): sucrose, 182; KCl, 2.5; MgSO4, 2; NaH2PO4, 1.25; NaHCO3, 25; CaCl2), 0.8; MgCl2, 5; glucose, 25; ascorbate, 1; HEPES, 20. The slicing procedure was performed using a Leica VT1200 vibrating microtome. Slices were then transferred to a submerged recovery chamber at room temperature containing oxygenated (95% 02 and 5% C02) storage artificial cerebrospinal fluid (ACSF) for 30 min before the incubations (see below). The storage ACSF contained, in mM: NaCl, 100; KCl, 2.5; MgSO4, 2; NaH2PO4, 1.25; NaHCO3, 25; CaCl2), 1.2; MgCl2, 3; glucose, 20; ascorbate, 1; sodium pyruvate,3 and HEPES, 20. The slices were incubated in the incubation chambers perfused with oxygenated storage ACSF containing the experimental agents for 90 min before performing field recordings: In the incubation chamber, control slices were perfused with normal storage ACSF while sAPPα slices were perfused with storage ACSF containing 1 μM sAPPα. CGP slices were perfused with storage ACSF containing 10 μM CGP54626 (Tocris). CGP+sAPPα slices were preincubated in the chamber perfused with ACSF+CGP before being transferred into the chamber perfused with storage ACSF implemented with 10 μM CGP54626+1 μM sAPPα. All recordings were performed at 32-33° C. in a recording chamber perfused with ACSF (4 ml/min) on the stage of an Olympus BX51WI microscope equipped with IR optics and oblique illumination. Recording ACSF contains, in mM: NaCl, 129; KCl, 2.5; CaCl2), 1.2; MgCl2, 1.2; NaHCO3, 25; NaH2PO4, 1.25; glucose, 15. Stimulation of the Schaffer-collateral was delivered through a glass suction electrode (10-20 μm tip) filled with ACSF. fEPSPs were recorded using a glass pipette containing ACSF (1-2 MΩ) from proximal synapses in the CA1 stratum radiatum. Field recording experiments were analyzed using Clampfit."}, "[3]": {"tested_on": "primary hippocampal neurons", "test": "mEPSCs & mIPSCs in cultured primary hippocampal neurons (wild type)", "type": "cell-based, mouse", "settings": "for effect on mEPSC frequency (in words) / effect on mIPSC frequency (in words): 250 nM each", "experimental": "mEPSCs & mIPSCs are measured in cultured primary hippocampal neurons at baseline and following acute application of agonists. Excitatory terminals selectively express the sushi domain-containing GABABR1a isoform (ref18), where it functions to inhibit neurotransmitter release (ref 24). Acute exposure of primary hippocampal neurons from wild type mice to 30μM baclofen, a GABABR agonist, or 250 nM sAPPα (Fc cleaved) reduces the frequency of miniature excitatory postsynaptic currents (mEPSCs) by 68% (FIG. 8 a,b) and 39% (FIG. 8 c,d), respectively, with no effect on mEPSC amplitude (FIG. 8e). […] Acute application of 30 μM baclofen or 250 nM purified sAPPα reduces the frequency of miniature inhibitory postsynaptic currents (mIPSCs) by 63% (FIG. 8a, 9a) and 44% (FIG. 8c, 9b), respectively, which is blocked by pretreatment with the GABABR antagonist CGP55845 (CGP, 5 μM) (FIG. 8f, 9d). Application of sAPPα causes a minor (14%) reduction on mIPSC amplitude (FIG. 8e, 9c). […] Baclofen is known to reduce the frequencies of mEPSCs and mIPSCs, which we have also confirmed. […] To confirm that the agonist is acting through GABABR1a, the agonist is tested in cultures with shRNA mediated knockdown of GABABR1a or antisense oligonucleotides mediated exon skipping of the exon encoding the Sushi domain 1 of GABABR1a. Antagonists are tested by treatment in combination with the agonist, Baclofen. […] As an antagonist we test an antibody against the sushi domain sequence (SEQ ID No: 5): […] SWTDMDTPSRCV. An antibody specifically binding to this domain which acts as an antagonist increases the frequencies of mEPSCs and mIPSCs. sAPPα also reduces mEPSC and mIPSC frequency in App/Aplp1 dKO cultures (FIG. 8j, 9f), excluding the possibility that sAPPα interferes with a complex of full-length APP and GABABR1 to exert its effect on GABABR signaling.\nHippocampal neurons were cultured from E18 C57/B16 wild type mice or APP/APLP1 dKO mice (provided by Ulrike Muller46) and plated on poly-D-lysine (Millipore), and laminin (Invitrogen) coated coverslips (Nalge Nunc International). Neurons were maintained in Neurobasal medium (Invitrogen) supplemented with B27, glucose, glutamax, penicillin/streptomycin (Invitrogen) and 25 μM β-mercaptoethanol.\nSingle neurons from wild type or APP/APLP1 null mutant embryos (E18) were recorded within the large neuronal network at DIV 12-15. The intracellular whole-cell pipette medium contained (in mM): 136 KCl, 18 HEPES, 4 Na-ATP, 4.6 MgCl2, 15 Creatine Phosphate, 1 EGTA and 50 U/ml Phospocreatine Kinase (300 mOsm, pH 7.30). Regular external solution contained 2 mM/2 mM Ca2+/Mg2+(in mM: 140 NaCl, 2.4 KCl, 2 CaCl2), 2 MgCl2, 10 HEPES, 14 Glucose (300 mOsm, pH 7.30)) and TTX (1 μM). Pharmacological reagents (30 μM baclofen, 5 μM CGP), sAPLP1, full length sAPP and sAPP derived peptides (250 nM each) were bath applied (dissolved in external medium described above) using a separate gravity driven application inlet. Recordings were done in whole cell voltage clamp configuration at −70 mV with a double EPC-10 amplifier (HEKA Elektronik) under control of Patchmaster v2×32 software (HEKA Elektronik). Currents were low-pass filtered at 3 kHz and stored at 20 kHz. Patch pipettes were pulled from borosilicate glass using a multi-step puller (P-1000; Sutter Instruments). Pipette resistance ranged from 3 to 5 MΩ and was compensated to 75-80%. Only cells with series resistances <15 MΩ were included in analysis. All recordings were done at room temperature. Spontaneous events were detected using Mini Analysis program (Synaptosoft). mEPSCs and mIPSCs were separated on the basis of their distinct decay kinetics, using a threshold of 5 ms47. Baseline was determined from an average of 60 sec of recordings prior to protein or drug treatment. Effect of treatment was determined from an average of 30 sec recordings after 140 sec of protein or drug treatment."}},
  "note": "Where no end group is shown, it is not given here.",
  "data": [
    {"molecule": "C[C@H](NC[C@H](O)CP(=O)(O)CC1CCCCC1)c1ccc(Cl)c(Cl)c1", "note": "[CGP54626, reference compound]", "values": [
      {"measurement": "occlusion of the sAPPα effect on presynaptic strength", "setting": "[1]", "result": "occluded"},
      {"measurement": "block of sAPPα effects on peak fEPSP amplitude and input/output slopes", "setting": "[2]; 10 μM preincubation for 20 min before sAPPα", "result": "blocked"},
      {"measurement": "occlusion of sAPPα-induced augmentation of short-term facilitation", "setting": "[2]; 10 μM, 20, 50 and 100 Hz burst frequencies", "result": "occluded"}
    ]},
    {"molecule": "C[C@H](NC[C@H](O)CP(=O)(O)Cc1ccccc1)c1ccc(Cl)c(Cl)c1", "note": "[CGP55845, reference compound]", "values": [
      {"measurement": "block of the reduction of mIPSC frequency", "setting": "[3]; pretreatment with antagonist 5 μM", "result": "blocked"},
      {"measurement": "block of the sAPPα effect on mEPSC frequency", "setting": "[3]; pretreatment with antagonist 5 μM, then 250 nM sAPPα", "result": "blocks the effect of sAPPα on mEPSC frequency"}
    ]},
    {"molecule": "NCC(CC(=O)O)c1ccc(Cl)cc1", "note": "(stereo not shown) [baclofen, reference compound]", "values": [
      {"measurement": "reduction of mEPSC frequency", "setting": "[3]; 30 µM", "result": 68, "unit": "%"},
      {"measurement": "reduction of mIPSC frequency", "setting": "[3]; 30 µM", "result": 63, "unit": "%"}
    ]},
    {"molecule": "DDSDVWWGGADTDYADG [17mer peptide, DDSDVWWGGADTDYADG]", "values": [
      {"measurement": "effect on mEPSC frequency (in words)", "setting": "[3]; acute application", "result": "reduces mEPSC frequency to a similar degree as sAPPα"},
      {"measurement": "effect on mIPSC frequency (in words)", "setting": "[3]; acute application", "result": "reduce mIPSC frequency to a similar extent as sAPPα"}
    ]},
    {"molecule": "ExD-AcD: extension domain-acidic domain fragment of APP695 (195-298aa), non-Fc protein used in ITC and functional assays (protein, left off: a dimerising Fc or GST; small tags and cut ends, extension domain-acidic domain fragment of APP695 (195-298aa), non-Fc protein used in ITC and functional assays) SVDSADAEEDDSDVWWGGADTDYADGGEDKVVEVAEEEEVADVEEEEADDDEDVEDGDEVEEEAEEPYEEATERTTSTATTTTTTTESVEEVVRVPTTAASTPD", "values": [
      {"measurement": "effect on mEPSC frequency (in words)", "setting": "[3]; acute application", "result": "reduces mEPSC frequency to a similar degree as sAPPα"},
      {"measurement": "effect on mIPSC frequency (in words)", "setting": "[3]; acute application", "result": "reduce mIPSC frequency to a similar extent as sAPPα"}
    ]},
    {"molecule": "sAPLP1: soluble ectodomain of APP-like protein 1 (protein, UniProt Q03157 39-584, looked up, extracellular domain) extracellular domain: NLAVGSPSAAEAPGSAQVAGLCGRLTLHRDLRTGRWEPDPQRSRRCLLDPQRVLEYCRQMYPELHIARVEQAAQAIPMERWCGGTRSGRCAHPHHEVVPFHCLPGEFVSEALLVPEGCRFLHQERMDQCESSTRRHQEAQEACSSQGLILHGSGMLLPCGSDRFRGVEYVCCPPPATPNPSGMAAGDPSTRSWPLGGRAEGGEDEEEVESFPQPVDDYFVEPPQAEEEEEEEEERAPPPSSHTPVMVSRVTPTPRPTDGVDVYFGMPGEIGEHEGFLRAKMDLEERRMRQINEVMREWAMADSQSKNLPKADRQALNEHFQSILQTLEEQVSGERQRLVETHATRVIALINDQRRAALEGFLAALQGDPPQAERVLMALRRYLRAEQKEQRHTLRHYQHVAAVDPEKAQQMRFQVQTHLQVIEERMNQSLGLLDQNPHLAQELRPQIQELLLAEHLGPSELDASVPGSSSEDKGSLQPPESKDDPPVTLPKGSTDQESSSSGREKLTPLEQYEQKVNASAPRGFPFHSSDIQRDELAPSGTGVSRE", "values": [
      {"measurement": "effect on mEPSC frequency (in words)", "setting": "[3]; acute application", "result": "not"},
      {"measurement": "reduction of mIPSC frequency", "setting": "[3]; acute application, 30 μM baclofen, 250 nM proteins", "result": 17, "unit": "%"}
    ]}
  ]
}
